Key:
sepsis induced in mice = conditions: cited from earlier work
[1] = tested on: white cells in fresh healthy whole blood; test: NETs formation induced in fresh healthy whole blood, H3.1-nucleosome ELISA and Bioanalyzer electrophoresis of plasma; type: cell-based, human; conditions: 2 healthy volunteers
Description: We collected whole blood samples from two healthy volunteers, in whom low levels of circulating NET material would be expected, in EDTA plasma blood collection tubes and in heparin plasma blood collection tubes. The two EDTA plasma blood collection tubes were centrifuged immediately to separate the cellular and plasma fractions to minimise contamination by large chromatin (including NET material) and the plasma was transferred to cryotubes and frozen. The two heparin plasma blood collection tubes were incubated at room temperature for 1 hour with gentle rotation of the tubes. The tubes were then centrifuged and the plasma was transferred to cryotubes and frozen.
The samples were assayed for nucleosomes containing histone isoform H3.1 (H3.1-nucleosomes) using an ELISA procedure in duplicate. In brief, 20 μl of sample were added to a microtiter well containing magnetic particles precoated with an anti-histone H3.1 antibody. The sample was incubated and the magnetic particles were isolated and washed. An anti-nucleosome antibody directed to bind to a conformational nucleosome epitope conjugated to horse radish peroxidase was added to the magnetic particles. The particles were incubated and then isolated and washed. The bound anti-nucleosome antibody was measured using a coloured substrate reaction. […]

[2] = cited from earlier work
[3] = single 25 mg/m^2 bolus intravenous dose

COc1cccc2c1C(=O)c1c(O)c3c(c(O)c1C2=O)C[C@@](O)(C(=O)CO)C[C@@H]3O[C@H]1C[C@H](N)[C@@H](O)[C@H](C)O1 [epirubicin]
survival (sepsis induced in mice; lethal sepsis by cecal ligation and puncture, death in 100% of mice within 72 hours without treatment): 75% | inflammation measured by circulating inflammatory biomarkers (sepsis induced in mice; septic mice): reduction in inflammation

heparin
NET material level in plasma (H3.1-nucleosome ELISA) ([1]; blood collection tubes incubated 1 hour at room temperature): high | level of NET material in plasma (DNA fragment size, Bioanalyzer) ([1]; retention time approximately 110 seconds): high

DNase
half-life ([2]; in vivo, iv): 3 to 4 h

COc1cccc2c1C(=O)c1c(O)c3c(c(O)c1C2=O)C[C@@](O)(C(=O)CO)C[C@@H]3O[C@H]1C[C@H](N)[C@H](O)[C@H](C)O1 [doxorubicin]
serum concentration [2, 3]: 10000 ng/mL | time serum level remains above 3 μg/ml [2, 3]: around 4 days

From patent US20230204599A1, “TRIAGING METHOD USING CELL FREE NUCLEOSOME LEVELS” (Belgian Volition SRL (BE/BE), priority 2020, published 2023)
